Legend:
[1] = test system: Jurkat T cells (PMA and ionomycin-induced gene expression); test: mRNA sequencing of activated Jurkat T cells; type: cell-based, human; details: P+I 8 h
Method: We then extracted RNA from these cells. Construction of the cDNA library and next-generation sequencing was performed at LAS (Gimpo, Korea). We sequenced all samples on an Illumina NextSeq 500 system with 75 paired-end reads. For the RNA sequencing analysis, reads for each sample were aligned to the human genome (GRCh37/hg19 genome assembly) using STAR 2.4.0.1[25] with default settings. We used HOMER tools to quantify and normalize the defined genes in RefSeq transcripts. FPKM normalized genes were hierarchically clustered using Cluster3.0[26]. We visualized refined data with Java Treeview (http://jtreeview.sourceforge.net). We conducted gene ontology analysis of each cluster using the DAVID web tool (https://david.ncifcrf.gov). Finally, we visualized the expression levels of target genes using the Integrative Genomics Viewer (http://software.broadinstitute.org/software/igv). The raw data were submitted to the NCBI Gene Expression Omnibus under accession number GSE185561.
Fig. 3 The CABIN1 peptide inhibits T-cell activation. a Heatmap of altered genes affected by FK506 treatment or CABIN1 peptide expression upon T-cell activation. b Gene Ontology analysis of cluster III. c mRNA expression levels of genes included in cluster III. d qRT-PCR data of genes in c. The experiment was independently repeated at least three times, and the data are presented as the mean ± standard deviation. Statistical differences were determined using two-tailed Student’s t-test. *p < 0.05, **p < 0.01, ***p < 0.001, NC negative control.

[2] = test system: tNFATC2 nuclear import; test: Nuclear localization of EGFP-tNFATC2 by confocal microscopy in Jurkat T cells; type: cell-based; details: 40 nM PMA and 1 μM ionomycin 4 h, FK506 0.5 μM, n = 10-12
Method: We transfected Jurkat T cells with the pCAG-EGFP-tNFATC2-IRES-mCherry-peptide by electroporation. After two days, we pretreated these cells with 0.5 μM FK506 for 30 min. Then, we treated them with 40 nM PMA and 1 μM ionomycin under culture conditions for 4 h. Before imaging by a confocal laser scanning microscope (Nikon, Tokyo, Japan), we treated the cells with 10 μg/ml Hoechst 33342 (Invitrogen, Waltham, MA, USA) to stain nuclei. Colocalization analysis of mCherry and Hoechst was performed with ImageJ and its plugin JACoP to measure the Manders coefficient[23],[24].
Scale bar, 50 μm e Nuclear-localized tNFATC2 was measured by calculating the colocalization ratio between Hoechst (M1) and EGFP (M2).

[3] = test system: Jurkat T cells (T-cell activation gene mRNA); test: Real-time quantitative PCR of activated Jurkat T cells; type: cell-based; details: PMA and ionomycin, Supplementary Fig. 5a, b
From the text: We collected Jurkat T cells with QIAzol Lysis Reagent (Qiagen) to extract total RNA. We reverse transcribed cDNAs from isolated RNA using AMV Reverse Transcriptase and random hexamers. We performed real-time quantitative PCR for each cDNA using TB Green® Premix Ex Taq™ (TaKaRa, Kusatsu, Japan) on a CFX Connect Real-time PCR Detection System (Bio-Rad, Hercules, CA, USA) and normalized the expression to that of 18 S rRNA or GAPDH.

## C=CC[C@@H]1/C=C(\C)C[C@H](C)C[C@H](OC)[C@H]2O[C@@](O)(C(=O)C(=O)N3CCCC[C@H]3C(=O)O[C@H](/C(C)=C/[C@@H]3CC[C@@H](O)[C@H](OC)C3)[C@H](C)[C@@H](O)CC1=O)[C@H](C)C[C@@H]2OC [FK506, reference compound]
[1]; NC 1.468, NC_P+I 5.071
  LOC729603 expression: 2.179 FPKM
[1]; NC 1.497, NC_P+I 26.809
  PDGFA expression: 3.25 FPKM
[1]; NC 1.659, NC_P+I 9.467
  PHACTR2 expression: 2.927 FPKM
[1]; NC 1.702, NC_P+I 5.834
  CABP1 expression: 1.201 FPKM
[1]; NC 1.84, NC_P+I 36.298
  POU2AF1 expression: 2.274 FPKM
[1]; NC 2.079, NC_P+I 12.391
  SPRY1 expression: 4.074 FPKM
[1]; NC 2.283, NC_P+I 12.861
  GFOD1 expression: 4.187 FPKM
[1]; NC 2.356, NC_P+I 7.198
  DSTYK expression: 3.501 FPKM
[1]; NC 2.395, NC_P+I 6.813
  FMNL2 expression: 2.726 FPKM
[1]; NC 2.492, NC_P+I 11.633
  ADORA2A expression: 0.998 FPKM
[1]; NC 2.525, NC_P+I 27.462
  CD27 expression: 3.098 FPKM
[1]; NC 2.597, NC_P+I 31.683
  TNFRSF4 expression: 2.933 FPKM
[1]; NC 2.654, NC_P+I 20.219
  REL expression: 4.749 FPKM
[1]; NC 2.788, NC_P+I 26.566
  JAK2 expression: 5.248 FPKM
[1]; NC 2.89, NC_P+I 28.699
  LRRC8B expression: 3.555 FPKM
[1]; NC 3.008, NC_P+I 8.759
  NPDC1 expression: 4.328 FPKM
[1]; NC 3.088, NC_P+I 14.958
  CD27-AS1 expression: 5.11 FPKM
[1]; NC 3.315, NC_P+I 14.15
  CST7 expression: 2.338 FPKM
[1]; NC 3.351, NC_P+I 128.498
  TAGAP expression: 4.352 FPKM
[1]; NC 3.587, NC_P+I 39.451
  CD55 expression: 6.015 FPKM
[1]; NC 3.595, NC_P+I 10.378
  GTDC1 expression: 4.629 FPKM
[1]; NC 3.84, NC_P+I 14.865
  KCNK5 expression: 3.906 FPKM
[1]; NC 4.114, NC_P+I 11.118
  MYO1D expression: 4.59 FPKM
[1]; NC 4.125, NC_P+I 19.889
  RDH10 expression: 5.856 FPKM
[1]; NC 4.149, NC_P+I 17.216
  COL27A1 expression: 4.463 FPKM
[1]; NC 4.432, NC_P+I 14.807
  PLK3 expression: 5.257 FPKM
[1]; NC 4.511, NC_P+I 15.287
  NFATC1 expression: 3.793 FPKM
[1]; NC 4.678, NC_P+I 18.37
  ASAP1 expression: 7.765 FPKM
[1]; NC 5.451, NC_P+I 21.464
  GRK5 expression: 8.481 FPKM
[1]; NC 5.477, NC_P+I 33.545
  CCDC64 expression: 10.044 FPKM
[1]; NC 5.727, NC_P+I 30.239
  ATG14 expression: 7.863 FPKM
[1]; NC 5.755, NC_P+I 16.085
  PELI1 expression: 8.175 FPKM
[1]; NC 6.146, NC_P+I 31.337
  ARHGEF3 expression: 8.637 FPKM
[1]; NC 6.444, NC_P+I 49.019
  PKIA expression: 13.962 FPKM
[1]; NC 7.304, NC_P+I 33.466
  LTBP4 expression: 8.427 FPKM
[1]; NC 8.064, NC_P+I 31.61
  LAMP3 expression: 6.412 FPKM
[1]; NC 8.344, NC_P+I 24
  LAX1 expression: 8.052 FPKM
[1]; NC 8.928, NC_P+I 45.38
  PTPN22 expression: 6.37 FPKM
[1]; NC 9.566, NC_P+I 50.97
  VAMP1 expression: 14.793 FPKM
[1]; NC 10.319, NC_P+I 76.622
  NINJ1 expression: 11.769 FPKM
[1]; NC 10.828, NC_P+I 36.893
  KCNK1 expression: 10.967 FPKM
[1]; NC 10.97, NC_P+I 49.481
  CD97 expression: 19.394 FPKM
[1]; NC 11.735, NC_P+I 48.015
  FBXO34 expression: 14.612 FPKM
[1]; NC 11.844, NC_P+I 35.808
  TBC1D20 expression: 17.7 FPKM
[1]; NC 12.409, NC_P+I 50.527
  MIR6775 expression: 19.643 FPKM
[1]; NC 14.395, NC_P+I 39.056
  AGK expression: 14.029 FPKM
[1]; NC 14.671, NC_P+I 58.084
  FYN expression: 16.523 FPKM
[1]; NC 17.553, NC_P+I 62.894
  MIR6821 expression: 13.626 FPKM
[1]; NC 19.638, NC_P+I 54.615
  NDFIP1 expression: 22.485 FPKM
[1]; NC 20.739, NC_P+I 73.749
  TBC1D4 expression: 12.549 FPKM
[1]; NC 21.676, NC_P+I 144.057
  MAP2K3 expression: 41.815 FPKM
[1]; NC 22.163, NC_P+I 77.092
  PTPN6 expression: 20.906 FPKM
[1]; NC 25.643, NC_P+I 101.352
  FXYD5 expression: 41.346 FPKM
[1]; NC 31.375, NC_P+I 113.956
  BCL2L1 expression: 39.402 FPKM
[1]; NC 33.172, NC_P+I 129.395
  ATP6V1B2 expression: 50.672 FPKM
[1]; NC 37.434, NC_P+I 180.382
  PIM3 expression: 42.827 FPKM
[1]; NC 58.328, NC_P+I 188.301
  PPIF expression: 50.291 FPKM
[2]
  proportion of nuclear-localized tNFATC2: lowest
[3]
  NINJ1 and ZP4 expression upon T-cell activation: repressed
